Measured values: patent US20180325106A1, “METHOD OF RETARDING AN ETHYLENE RESPONSE” (CURTIN UNIVERSITY OF TECHNOLOGY, priority 2015, published 2018)
Read-outs that look alike come from different tables or passages of the source.

Experiments:
[1] = test system: WX73 wax flower; assay: Flower/bud abscission in WX73 wax flower; type: in vivo, Chamelaucium Desf.
Method: (§1) To evaluate the effects of BC and NC on flower abscission, flowering stems of Wax flower (Chamelaucium Desf.) (WX17, WX73 and WX107) were collected from mature bushes grown at Department of Agriculture and Food Western Australia (DAFWA), Perth (31° 58′ 55″ S/115° 51′ 47″ E). Collected stems were immediately placed upright in buckets with water and recut at 20-25 cm in length (from the cut end to the most extreme opened-flowers). The flower stalks were treated similarly as the fruits with BC (0-100 nLL^−1) or NC (0-100 nLL^−1) and ethylene. The experiments were laid out by following CRD design, having five replications for each treatment and five stalks in each replication. During the treatment period, the flower stalks were placed in small plastic bottles with distilled water. A cone made of nylon mesh was placed at the base of the stalks to check the number of abscised flowers. […]
(§2) The experimental data were analysed following one-way analysis of variance (ANOVA) by using Genstat 13 (release 13.1; Lawes Agricultural Trust, Rothamsted Experimental Station, Harpenden, UK). The effects of various treatments and their interactions were assessed and least significant differences (Fisher's LSD) were calculated by F test at 5% level of significance.

[2] = Stability at room temperature; type: physicochemical
[3] = test system: 'Tegan Blue' Japanese plum fruit; assay: Climacteric respiration (CO2 production) in 'Tegan Blue' plum fruit; type: in vivo
Method: (§3) Mature ‘Tegan Blue’ and ‘Fortune’ Japanese plum and ‘Arctic Pride’ nectarine fruits of uniform size and maturity, free from visual blemishes and diseases were harvested in early morning from a commercial orchard in Western Australia. Following the harvest, the fruit were brought to the Horticulture Research Laboratory, Curtin University, using a temperature controlled vehicle at 20-25° C. The fruit were treated by fumigation with 0 to 100 nLL^−1 of BC and 1000 nLL^−1 of 1-MCP (Tegan Blue plum) for 18 hr at ambient conditions (20±1° C. and 65±5% RH) by using hermetically sealed plastic containers of 60 L volume. […]
(§4) Respiration rate was determined as carbon dioxide (CO2) production from the fruit during ripening period a using CO2 analyser. […] The respiration rate was calculated on the basis of the peak areas of 2.0 mL gas sample and CO2 standard (8.52±0.17%) and expressed as mmoL CO2 […] h^−1.
as §2

[4] = Solubility in water; type: physicochemical
[5] = test system: WX17 wax flower; assay: Flower/bud abscission in WX17 wax flower; type: in vivo, Chamelaucium Desf.; details: 100 nLL^-1 fumigation followed by ethylene 10 μLL^-1
Method: as §1, §2

[6] = test system: 'Arctic Pride' nectarine fruit; assay: Climacteric ethylene production in 'Arctic Pride' nectarine fruit after fumigation; type: in vivo; details: 50 nLL^-1 fumigation, then ethylene 10 μL L^-1
Method: as §3
The endogenous level of ethylene was determined by using the Sensor Sense (Sensor sense B. V, Nijmegen, The Netherlands). […] Each sample was run for 20 minutes with a flow rate of 4.0 L hour^−1 and the average reading of last 15 minutes was considered to calculate the concentration of ethylene and expressed as μmol […] h^−1.
as §2

[7] = test system: 'Arctic Pride' nectarine fruit; assay: Climacteric respiration (CO2 production) in 'Arctic Pride' nectarine fruit; type: in vivo
Method: as §3, §4, §2

[8] = test system: 'Tegan Blue' Japanese plum fruit; assay: Climacteric ethylene production in 'Tegan Blue' plum fruit after fumigation; type: in vivo; details: for level of climacteric ethylene, suppressed, fold in comparison to the solely ethylene treated fruit: then ethylene 10 μL L^-1 24 hr, 'Tegan Blue' plum, P≤0.05
Method: Mature ‘Tegan Blue’ and ‘Fortune’ Japanese plum and ‘Arctic Pride’ nectarine fruits of uniform size and maturity, free from visual blemishes and diseases were harvested in early morning from a commercial orchard in Western Australia. Following the harvest, the fruit were brought to the Horticulture Research Laboratory, Curtin University, using a temperature controlled vehicle at 20-25° C. The fruit were treated by fumigation with 0 to 100 nLL^−1 of BC and 1000 nLL^−1 of 1-MCP (Tegan Blue plum) for 18 hr at ambient conditions (20±1° C. and 65±5% RH) by using hermetically sealed plastic containers of 60 L volume. Whatman filter paper (number 2) soaked with specific concentrations of BC and 1-MCP were kept along with the fruit and 30 g of soda lime inside each container. A small battery operated fan was used to ensure equal distribution of the vapours from the chemicals. Half of the treated fruit was exposed to ethylene (10 μL L^−1) for 24 hr following BC and 1-MCP treatment.
The endogenous level of ethylene was determined by using the Sensor Sense (Sensor sense B. V, Nijmegen, The Netherlands). The Sensor Sense includes an ETD 300 ethylene detector, a set of valve controllers with an option of six valves connected to six separate cuvettes [1.0 L air-tight jar, fitted with a rubber septum (SubaSeal®, Sigma-Aldrich Co., St. Louis, USA)]. The continuous flow method was used with coarse mode (conversion factor 99818, capacity to measure ethylene concentration at 0-500 ppm, sensitivity at <1%) of analysis. Each sample was run for 20 minutes with a flow rate of 4.0 L hour^−1 and the average reading of last 15 minutes was considered to calculate the concentration of ethylene and expressed as μmol […] h^−1.
as §2

[9] = gas at room temperature; background statement; cited from earlier work

c1ccc2c(c1)C2 [BC, benzocyclopropene]
rate of flower/bud abscission ([1]; 50 nL L^-1 fumigation followed by ethylene): 22.43% | rate of flower/bud abscission ([1]; 100 nL L^-1 fumigation followed by ethylene): 28.40% | stability [2]: stable at room temperature for several months | climacteric respiration, suppressed, fold versus the solely ethylene treated fruit ([3]; 100 nLL^-1 fumigation + ethylene): 0.83 fold | solubility in water [4]: only partially soluble in water | rate of flower/bud abscission [5]: 6.05% | level of ethylene, suppressed, fold versus the solely ethylene treated fruit [6]: 0.63 fold | respiration climacteric, suppression, fold in comparison to the solely ethylene treated fruit ([7]; 50 nLL^-1 fumigation + ethylene): 0.77 fold | respiration climacteric, suppression, fold in comparison to the solely ethylene treated fruit ([7]; 50 nLL^-1 fumigation, no ethylene exposure): 0.71 fold | level of climacteric ethylene, suppressed, fold in comparison to the solely ethylene treated fruit ([8]; 100 nLL^-1 fumigation 18 hr): 0.80 fold | difference between effects of BC (100 nL L^-1) and 1-MCP (1000 nL L^-1) on climacteric ethylene and respiration ([8]; 'Tegan Blue' and 'Fortune' plum, 'Arctic Pride' nectarine, ethylene and respiration): non-significant differences

CC1=CC1 [1-MCP, 1-Methylcyclopropene, reference compound]
climacteric respiration, suppressed, fold versus the solely ethylene treated fruit ([3]; 1000 μLL^-1 (so in the source) fumigation + ethylene): 0.77 fold | stability [9]: highly unstable | level of climacteric ethylene, suppressed, fold in comparison to the solely ethylene treated fruit ([8]; 1000 nLL^-1 fumigation 18 hr): 0.70 fold
